From PMC9324262, “Selective CDK9 Inhibition by Natural Compound Toyocamycin in Cancer Cells” (Cancers, 2022)

Tests used:
[1] = tested on: histone 3 and histone 4; assay: histone acetylation by mass spectrometry; type: cell-based, human; details: eleven lysine residues, YB5 cells
Protocol: As described previously, histone proteins were acid-extracted (0.2 N HCl) for 16 h. Histone acetylation levels were quantified on histone 3 and histone 4 by a Thermo TSQ Quantum Access triple quadrupole (QqQ) mass spectrometer (Thermofisher Scientific, Waltham, MA, USA).

[2] = tested on: YB5 cells; assay: RNA sequencing, differential gene expression; type: cell-based, human
Protocol: Sequenced reads were aligned to the GRCh38.100 reference genome using STAR version 2.7.5a and gene-level counts were generated by setting the “quantMode GeneCounts” flag. Differential expression analysis was performed using EdgeR version 3.32.1.. The “filterByExpr” function in EdgeR was then used to determine genes with sufficiently large counts to be included in downstream differential expression testing. The filtered count matrix was then normalized using TMM normalization and differential expression testing was performed using the “glmTreat” function with the minimal required fold-change threshold set to “log2(1)” for significant differential gene expression (FDR < 0.1).

[3] = tested on: CDK9; assay: Western blot, CDK9 protein level; type: cell-based, human; details: HCT116, 50–500 nM, 6 h
Protocol: YB5 cells were harvested in 50 mM Tris-HCl, 1% NP-40, 1 mM EDTA, 1 mM EGTA, 0.25% sodium deoxycholate, 150 mM NaCl, 50 mM sodium fluoride, and 1X Complete protease cocktail (Roche, Basel, Switzerland) with 1 mM PMSF. The total protein concentration was measured in all samples by standard BCA protocol (Pierce-23225, Thermo Scientific, Waltham, MA, USA) to ensure that an equal amount of protein was added to each sample. Protein extracts were run on 12% SDS–PAGE precast gels (Bio-Rad, Hercules, CA, USA, 345-0118). Proteins were transferred to polyvinylidene difluoride (PVDF) membranes in 10 mmol/L CAPS (pH-11) containing 10% methanol and detected by using specific primary antibodies, horseradish peroxidase–conjugated secondary antibodies (GE Healthcare, Chicago, IL, USA), and an enhanced chemiluminescence reagent (Pierce). PVDF membranes were incubated with specific primary antibodies (actin—A5441, Sigma, St. Louis, MO, USA; HA-tagged—H9608, Sigma; FLAG-tagged—F3165, Sigma). FLAG- and HA-tagged CDK9 plasmids were a generous gift from Dr Bassel E. Sawaya (Temple University). […] After sonication, total protein concentrations were determined using Bradford protein assay. […] Band intensity quantifications were calculated using ImageJ software, edition 1.53 [27].

[4] = cell viability by Viacount, YB5; type: cell-based; details: human, YB5 colon cancer cells; 24 and 72 h, 50 nM to 50 µM, highest doses; read-out: cell viability relative to untreated cells
Protocol: Cell viability was measured in YB5 and HCT166 cells using Viacount (Luminex, Austin, TX, USA, 4000-0040) on a Guava flow cytometer (Millipore, Burlington, MA, USA). Colon cancer cells were grown in 96-well plates in the same conditions as in the drug screen and treated with toyocamycin and known CDK9 inhibitor BAY1251152 (Selleckchem, Houston, TX, USA). Cell culture media of each well was collected to harvest floating dead cells and kept aside for later. Cells were trypsinized (0.25% trypsin, Gibco, Waltham, MA, USA) for 5 min at 37 °C. Cell culture media of each well was added back to their corresponding wells to stop trypsinization and mixed thoroughly to obtain a single cell suspension. Viacount solution (Luminex, Austin, TX, USA, 4000-0040, 25 μL) was added to each well, and incubated (5 min at room temperature, in the dark) prior to cell viability analysis on the Guava flow cytometer.

[5] = tested on: HCT116 cells; assay: cell cycle analysis by flow cytometry; type: cell-based, human
Protocol: For cell cycle analysis, cells were cultured in T25 flasks, trypsinized, and washed with PBS. Then, 1 × 10^6 cells were fixed in 100% cold ethanol overnight at −20 °C. Cells were then washed with PBS and treated with 100 μg/mL RNase A (Invitrogen, Waltham, MA USA) for 20 min, at 37 °C. DNA was stained with 5 μg/mL propidium iodide (Sigma, St. Louis, MO, USA). The cell cycle was analyzed by flow cytometry using a Guava® easyCyte HT System (Millipore) with GuavaSoft 3.2 software.

[6] = design: method as in PMID 5646857; details: cited from earlier work
[7] = 6 h treatment followed by 18 h without exposure

For N#Cc1cn([C@@H]2O[C@H](CO)[C@@H](O)[C@H]2O)c2ncnc(N)c12 [toyocamycin, 7-Deaza-7-cyanoadenosine], the “histone 3 and 4 lysine acetylation levels” value [1] was “did not modify lysine acetylation levels”, the gene downregulation ([2]; 250 nM, 2 h) was 3.5% and the “number of genes downregulated” value ([2]; 250 nM, 2 h) was 513 genes. For the same molecule, the “number of genes upregulated” value ([2]; 250 nM, 2 h) was 24 genes, the “number of genes downregulated” value ([2]; 250 nM, 10 h) was 2299 genes and the “number of genes upregulated” value ([2]; 250 nM, 10 h) was 1999 genes. The “level of differentially expressed genes” value ([2]; 250 nM, 10 h to 96 h) was “up to 60%”, the “number of genes downregulated” value ([2]; 250 nM, 24 h) was 3651 genes and the “number of genes upregulated” value ([2]; 250 nM, 24 h) was 3387 genes. For the same molecule, the “number of genes downregulated” value ([2]; 250 nM, 48 h) was 4377 genes, the “number of genes upregulated” value ([2]; 250 nM, 48 h) was 4449 genes and the “number of genes downregulated” value ([2]; 250 nM, 96 h) was 5061 genes. For the same molecule, the “number of genes upregulated” value ([2]; 250 nM, 96 h) was 5050 genes, the “endogenous retrovirus (ERV) expression” value ([2]; 24 h treatment) was “induced significant ERV expression” and the CDK9 levels [3] was “did not change”. The viability [4] was over 50%, the apoptotic cells [5, 7] was 10% and the cell cycle [5, 7] was “not significantly impacted”. The cell cycle ([5]; 24 h treatment, 500–1000 nM) was “significantly blocked the cell cycle”, the systemic toxic effects ([6]; 10–200 µg/kg for 5 days, intravenous infusion over 1–2 h, twenty-three cancer patients) was “No systemic toxic effects were observed” and the local toxicity ([6]; patients receiving the highest doses, intravenous infusion) was “local toxicity at the site of injection (severe phlebitis)”.
